Assay results taken from US20190240292A1, “METHODS OF ADMINISTERING HEPCIDIN” (priority 2016, published 2019).

How the values were obtained:
serum iron levels [1] = test: Subcutaneous hepcidin, effect on serum iron levels in mice (Example 1); format: in vivo; conditions: 50 μg subcutaneous, p<0.05
From the text: A study was designed to evaluate the effect of subcutaneous doses of hepcidin on serum iron levels in mice (n=6-7/group).

serum iron levels [2] = test: Subcutaneous hepcidin 50, 100, 200 μg, effect on serum iron levels in mice (Example 2); format: in vivo; conditions: for serum iron levels compared to vehicle: p<0.01
Procedure: A study was designed to evaluate doses of 50, 100, and 200 μg of hepcidin delivered subcutaneously and their effect on serum iron levels in mice (n=7/group). […] Conversely, 50 μg and 100 μg doses were elevated (p<0.01) compared to the vehicle at 24 hours post dose. The elevated levels of serum iron could be due to the system's reaction to the clearance of hepcidin. […] Mortality was likely related to the stress of the blood collection. Serum iron levels normalized 72 hours post dose.

serum iron levels [3] = test: Subcutaneous hepcidin 1, 5, 10, 50 mg, effect on serum iron levels in normal rats (Example 3); format: in vivo
Procedure: A study was designed to evaluate doses of 1, 5, 10, and 50 mg of hepcidin delivered subcutaneously and their effect on serum iron levels in normal rats (n=7/group). […] Tmax and Cmax were reached between 1 and 2 hours post dose for all dose groups, but the uptake between the high and mid dose were very similar at these time points. […] In the 5 mg dose, serum iron levels returned to pre-dose levels at 48 hours post dose.

[4] = Expanded acute study (NOAEL), single subcutaneous dose of hepcidin in dogs (Example 4); format: in vivo; conditions: for dose at which mixed cell infiltration in the administration site was found (microscopic): males and females
Procedure: Increased thickness in the administration site was observed on Day 4 at 50 mg/kg and on Day 15 at ≥25 mg/kg. Microscopic findings on Day 4 consisted of mixed cell infiltration in the administration site in males and females at ≥25 mg/kg, while on Day 15, microscopic findings at the administration site included mixed cell infiltration in males and females at ≥5 mg/kg, fibrosis in males at ≥25 mg/kg and in females at ≥5 mg/kg, and cystic space in males at 50 mg/kg and in females at ≥25 mg/kg.

serum ferritin = test: Serum ferritin in sickle cell disease and hereditary hemochromatosis patients after hepcidin (Example 5); format: in vivo, human; conditions: 8 days post administration
Procedure: Hepcidin administration lowered ferritin blood levels in sickle cell patients with high baseline ferritin. A 1 milligram bolus of hepcidin was administered subcutaneously to two male patients with sickle cell disease (patients 1001 and 1002). Serum ferritin concentrations were measured at baseline as well as eight days post administration of hepcidin. Ferritin blood levels were lower 8 days post hepcidin administration in both patients (FIG. 1). Percent changes in ferritin blood levels for patients 1001 and 1002 were −45% and −61%, respectively (FIG. 3).
Hepcidin was administered to three hereditary hemochromatosis patients with normal baseline serum ferritin concentrations. Hereditary hemochromatosis patient 1003 was administered 1 mg of hepcidin, while two other patients (2001 and 2002) were administered 5 mg of hepcidin. Ferritin blood levels were measured in all patients eight days post hepcidin administration (FIG. 2). Percent change in ferritin blood levels among patients 1003, 2001, and 2002 were 25%, −19%, and 18%, respectively (FIG. 3).

[5] = system: transferrin saturation (TSAT); test: Transferrin saturation (TSAT) in patients after hepcidin (Example 6); format: in vivo, human; conditions: for Transferrin saturation - percent change from baseline: eight days post administration
Procedure: Transferrin saturation (TSAT) was measured in patients described in Example 1. TSAT indicates the percent of iron-binding sites of transferrin that are occupied by iron, making TSAT an important tool in diagnosis and monitoring of blood disorders and disease. A one milligram bolus of hepcidin was administered to sickle cell disease patients 1001 and 1002 and hereditary hemochromatosis patient 1003, while patients 2001 and 2002 were administered 5 mg of hepcidin each. TSAT levels were measured eight days post hepcidin administration.

serum iron concentration = test: Serum iron levels in patients after hepcidin (Example 7); format: in vivo, human
Procedure: Serum iron levels were measured in six patients with sickle cell disease patients and hereditary hemochromatosis patients post administration of hepcidin. Serum iron levels were measured prior to hepcidin administration (baseline) as well as post hepcidin administration at 2 hours, 4 hours, 8 hours, 24 hours, 48 hours, and […]. Patients were divided into two cohorts, cohort 1 was administered 1 mg of hepcidin and cohort 2 was administered 5 mg of hepcidin. Cohort 1 comprised sickle cell patients 1001 and 1002 as well as hereditary hemochromatosis patient 1003, while cohort 2 comprised hereditary hemochromatosis patients 2001, 2002, and 2004. Percent change of serum iron concentration for individual patients and average percent changes for both cohorts are shown in FIGS. 6 and 7. On average, hepcidin administration decreased serum iron concentration over an 8 day period by 35-40% in both cohorts.

[6] = based on animal data
[7] = Expanded acute study (NOAEL), hepcidin SC in Sprague Dawley rats (Example 4)
Procedure: A study was designed to evaluate doses of 5, 25, and 50 mg/kg of hepcidin (human equivalent dose of 0.8, 4, 8 mg/kg, respectively), delivered SC to Sprague Dawley rats (n=9/sex/group).

[8] = patient 1001, sickle cell disease, 1 mg
[9] = patient 1002, sickle cell disease, 1 mg
[10] = patient 1003, hereditary hemochromatosis, 1 mg
[11] = patient 2001, hereditary hemochromatosis, 5 mg
[12] = patient 2002, hereditary hemochromatosis, 5 mg
[13] = Sprague Dawley rats, 5, 25 and 50 mg/kg SC

CC[C@H](C)[C@@H]1NC(=O)[C@@H](NC(=O)[C@@H](NC(=O)[C@@H]2CCCN2C(=O)[C@H](Cc2ccccc2)NC(=O)[C@H](Cc2c[nH]cn2)NC(=O)[C@@H](NC(=O)[C@@H](N)CC(=O)O)[C@@H](C)O)[C@@H](C)CC)CSSC[C@@H](C(=O)N[C@@H](CCCCN)C(=O)N[C@H](C(=O)O)[C@@H](C)O)NC(=O)[C@@H]2CSSC[C@@H]3NC(=O)[C@@H]4CSSC[C@H](NC(=O)[C@H](Cc5ccccc5)NC1=O)C(=O)N[C@@H](CSSC[C@H](NC(=O)[C@H](CCCCN)NC(=O)[C@H](CO)NC(=O)[C@H](CCCNC(=N)N)NC(=O)[C@H](Cc1c[nH]cn1)NC3=O)C(=O)NCC(=O)N[C@@H](CCSC)C(=O)N2)C(=O)NCC(=O)N4 [hepcidin]
decrease in serum iron levels compared to vehicle (average) (serum iron levels [1]; 4 hours post dose): 40% | decrease in serum iron levels compared to vehicle (average) (serum iron levels [1]; 24 hours post dose): 15% | serum iron levels compared to vehicle (serum iron levels [2]; mice, 50 μg and 100 μg subcutaneous, 24 hours post dose): elevated | serum iron levels compared to vehicle (serum iron levels [2]; mice, 50, 100 and 200 μg subcutaneous, 4 hours post dose): significant decrease | time post dose at which serum iron levels normalized (serum iron levels [2]; mice, subcutaneous): 72 h | mortality (serum iron levels [2]; mice, following the 4-hour blood collection, likely related to stress of blood collection): One mouse died | time post dose at which serum iron levels returned to pre-dose levels (serum iron levels [3]; 5 mg subcutaneous): 48 h | return of serum iron levels to pre-dose levels (serum iron levels [3]; 10 mg and 50 mg subcutaneous, 72 hours post dose): did not return to pre-dose levels | effect on serum iron levels at 72 hours (serum iron levels [3]; 50 mg subcutaneous): still demonstrated an effect | serum iron levels (serum iron levels [3]; subcutaneous, all dose levels (1, 5, 10, 50 mg)): significant decrease | time post dose of lowest serum iron concentrations (serum iron levels [3]; subcutaneous, all three doses): 4 h | lethargy (serum iron levels [3]; subcutaneous, any dose level): No lethargy was observed | NOAEL at 15 Day ([4]; both sexes, dog, in vivo, sc, dogs, single subcutaneous dose): 5 mg/kg/day | other adverse reactions ([4]; dogs, 5, 25 and 50 mg/kg single subcutaneous dose): hunched posture, soft feces, gross pathology finding of “thick,” and subcutaneous fibrosis, mixed cell infiltration, and cysts present at recovery period | dose at which increased thickness in the administration site was observed ([4]; dogs, Day 4): 50 mg/kg | dose at which increased thickness in the administration site was observed ([4]; dogs, Day 15): ≥ 25 mg/kg | dose at which cystic space at the administration site was found (microscopic) ([4]; dogs, females, Day 15): ≥ 25 mg/kg | dose at which fibrosis at the administration site was found (microscopic) ([4]; dogs, females, Day 15): ≥ 5 mg/kg | dose at which mixed cell infiltration in the administration site was found (microscopic) ([4]; dogs, Day 4): ≥ 25 mg/kg | dose at which mixed cell infiltration in the administration site was found (microscopic) ([4]; dogs, Day 15): ≥ 5 mg/kg | dose at which cystic space at the administration site was found (microscopic) ([4]; dogs, males, Day 15): 50 mg/kg | dose at which fibrosis at the administration site was found (microscopic) ([4]; dogs, males, Day 15): ≥ 25 mg/kg | neutrophils and fibrinogen levels ([4]; dogs, up to Day 4, ≥25 mg/kg/day dose groups, not considered serious): temporary increases | percent change in ferritin blood levels (serum ferritin; patient 1001, sickle cell disease, 1 mg subcutaneous bolus): −45% | percent change in ferritin blood levels (serum ferritin; patient 1002, sickle cell disease, 1 mg subcutaneous bolus): −61% | percent change in ferritin blood levels (serum ferritin; patient 1003, hereditary hemochromatosis, normal baseline ferritin, 1 mg): 25% | percent change in ferritin blood levels (serum ferritin; patient 2001, hereditary hemochromatosis, normal baseline ferritin, 5 mg): −19% | percent change in ferritin blood levels (serum ferritin; patient 2002, hereditary hemochromatosis, normal baseline ferritin, 5 mg): 18% | ferritin blood levels versus baseline (serum ferritin; sickle cell disease patients 1001 and 1002 (high baseline ferritin), 1 mg subcutaneous bolus): lower | TSAT at day eight versus baseline ([5]; all patients (1001, 1002, 1003 at 1 mg; 2001, 2002 at 5 mg)): percent decrease | Transferrin saturation - percent change from baseline [5, 8]: −19% | Transferrin saturation - percent change from baseline [5, 9]: −62% | Transferrin saturation - percent change from baseline [5, 10]: −27% | Transferrin saturation - percent change from baseline [5, 11]: −26% | Transferrin saturation - percent change from baseline [5, 12]: −40% | average decrease of serum iron concentration over an 8 day period (serum iron concentration; both cohorts (cohort 1: 1 mg; cohort 2: 5 mg)): 35-40% | efficacy in human subjects (serum iron concentration; doses of 1 mg and 5 mg hepcidin): display efficacy | Serum iron concentration, maximum observed percentage change from baseline (serum iron concentration; [8]): −6% | Serum iron concentration, percentage change from baseline 8 days after administration of hepcidin (serum iron concentration; [8]): −4% | Serum iron concentration, maximum observed percentage change from baseline (serum iron concentration; [9]): −69% | Serum iron concentration, percentage change from baseline 8 days after administration of hepcidin (serum iron concentration; [9]): −69% | Serum iron concentration, maximum observed percentage change from baseline (serum iron concentration; [10]): −37% | Serum iron concentration, percentage change from baseline 8 days after administration of hepcidin (serum iron concentration; [10]): −37% | Serum iron concentration, maximum observed percentage change from baseline (serum iron concentration; [11]): −53% | Serum iron concentration, percentage change from baseline 8 days after administration of hepcidin (serum iron concentration; [11]): −40% | Serum iron concentration, maximum observed percentage change from baseline (serum iron concentration; [12]): −24% | Serum iron concentration, percentage change from baseline 8 days after administration of hepcidin (serum iron concentration; [12]): −24% | Serum iron concentration, maximum observed percentage change from baseline (serum iron concentration; patient 2004, hereditary hemochromatosis, 5 mg): −35% | dose that may cause adverse effects in humans [6]: about 200 mg | adverse effects [7, 13]: No unexpected adverse effects were observed | food consumption and body weight gain [7, 13]: non-adverse, dose-independent, reductions | injection site finding [7, 13]: induration | reticulocytes and iron concentration [7, 13]: dose-dependent reversible decreases | unsaturated iron binding capacity [7, 13]: increased | average serum iron levels compared to vehicle and pre-dose levels ([7]; Sprague Dawley rats, 5, 25 and 50 mg/kg SC, all doses): significantly decreased | time post dose of lowest serum iron level ([7]; Sprague Dawley rats, 5, 25 and 50 mg/kg SC, all three doses): 4 h | NOAEL ([7]; both, Sprague Dawley, rat, in vivo, sc): 50 mg/kg/day
